Data from patent US11306105B2, “Cyano thienotriazolodiazepines and uses thereof” (Dana-Farber Cancer Institute, Inc., priority 2015, dated 2022).
Where two headings read alike, the source gives them in different places.

Assays:
[1] = test system: NMC797 cell line (BRD4 dependent NUT midline carcinoma line); assay: Cell proliferation assay (ATP content), NMC797; format: cell-based; settings: NMC797 cells, 48 h incubation
Protocol: (§1) The IC50 of the compounds were determined by ALPHASCREENING assays for BRD4 and BRDT proteins. NMC797 cell line is a BRD4 dependent NUT midline carcinoma line.
Cell Proliferation Assay. Cells were seeded into white, 384-well microtiter plates (Nunc) at 500 cells per well in a total volume of 50 μL media. The 797, TT, and TE10 cells were grown in DMEM containing 1% penicillin/streptomycin and 10% FBS. The Per403 cells were grown in DMEM containing 1% penicillin/streptomycin and 20% FBS. Compounds were delivered to microtiter assay plates by robotic pin transfer (PerkinElmer JANUS equipped with a V&P Scientific 100 nL pin tool). Following a 48 h incubation at 37° C., cells were lysed and wells were assessed for total ATP content using a commercial proliferation assay (Cell TITERGLO; Promega). Replicate measurements were analyzed with respect to dose and estimates of IC50 were calculated by logistic regression ([…] PRISM).

BRDT(1) = BRDT(1) (Homo sapiens (Human), UniProt Q58F21); assay: AlphaScreen acetyl-histone binding assay, BRDT(1)
Protocol: as §1
(§2) Acetyl-Histone Binding Assay. Assays were performed as described previously with minor modifications from the manufacturer's protocol (PerkinElmer, USA). All reagents were diluted in 50 mM HEPES, 100 mM NaCl, 0.1% BSA, pH 7.4 supplemented with 0.05% CHAPS and allowed to equilibrate to room temperature prior to addition to plates. A 24-point 1:2 serial dilution of the ligands was prepared over the range of 150-0 μM and 4 μl transferred to low-volume 384-well plates (ProxiPlate™-384 Plus, PerkinElmer, USA), followed by 4 μl of HIS-tagged protein (BRD4/1, 250 nM, BRD4/2 and CREBBP, 2000 nM). […] Plates were sealed and incubated for a further 30 minutes, before the addition of 4 μl of streptavidin-coated donor beads (25 μg/ml) and 4 μl nickel chelate acceptor beads (25 μg/ml) under low light conditions. Plates were foil-sealed to protect from light, incubated at room temperature for 60 minutes and read on a PHERAstar FS plate reader (BMG Labtech, Germany) using an AlphaScreen 680 excitation/570 emission filter set. IC50 values were calculated in Prism 5 (GraphPad Software, USA) after normalization against corresponding DMSO controls and are given as the final concentration of compound in the 20 μl reaction volume.

BRD4(1) = BRD4(1) (Homo sapiens (Human), UniProt O60885); assay: AlphaScreen acetyl-histone binding assay, BRD4(1)
Protocol: as §1, §2

[2] = Pharmacokinetics in male CD1 mice, IV administration; format: in vivo, mouse; settings: IV 5 mg/kg, whole blood; for AUC(0-inf) / AUC(0-t) / MRT inf / clearance / half-life / Vd: mouse; for half-life: read-out: Terminal t1/2 (converted); for Vd: read-out: VSS
Protocol: (§3) Pharmacokinetic parameters were determined by administration of a candidate bromodomain inhibitor to male CD1 mice. Intravenous doses were delivered at 5 mg/kg, and oral doses at 10 mg/kg (N=3). […] The compound concentration in mouse blood was monitored over 24 hour time period to check the compound concentration in blood at 5 min, […], 1 h, 2 h, 6 h, 12, 24 h via a series bleeding.

[3] = Pharmacokinetics in male CD1 mice, oral administration; format: in vivo, mouse; settings: for half-life: read-out: Terminal t1/2 (converted); for F: oral 10 mg/kg vs IV 5 mg/kg
Protocol: as §3

[4] = mouse, oral 10 mg/kg, whole blood
[5] = mouse, oral 10 mg/kg, whole blood, read-out: Cmax
[6] = mouse, oral 10 mg/kg, whole blood, read-out: Tmax

SMILES | IC50 ([1]; NMC-797) [nM] | IC50 (BRDT(1)) [nM] | IC50 (BRD4(1)) [nM] | further results
Cc1sc2c(c1C)C(c1ccc(C#N)cc1)=N[C@@H](CC(=O)OC(C)(C)C)c1nnc(C)n1-2 [Compound 100] | 185 |  |  | 
Cc1sc2c(c1C)C(c1ccc(C#N)cc1)=N[C@@H](CC(=O)Nc1ccc(O)cc1)c1nnc(C)n1-2 [Compound 101] | 133 | 120 | 79 | 
CCNC(=O)C[C@@H]1N=C(c2ccc(C#N)cc2)c2c(sc(C)c2C)-n2c(C)nnc21 [Compound 102] | 275 | 458 | 120 | 
Cc1sc2c(c1C)C(c1ccc(C#N)cc1)=N[C@@H](CC(=O)NCCCN1CCN(C)CC1)c1nnc(C)n1-2 [Compound 103] | 333 | 120 | 50 | 
Cc1sc2c(c1C)C(c1ccc(C#N)cc1)=N[C@@H](CC(=O)NCCN1CCOCC1)c1nnc(C)n1-2 [Compound 104] | 183 | 216 | 53 | 
Cc1sc2c(c1C)C(c1ccc(C#N)cc1)=N[C@@H](CC(N)=O)c1nnc(C)n1-2 [Compound 105] | 366 | 565 | 174 | 
Cc1sc2c(c1C)C(c1ccc(C#N)cc1)=N[C@@H](CC(=O)NCCO)c1nnc(C)n1-2 [Compound 106] | 328 | 105 | 33 | 
Cc1sc2c(c1C)C(c1ccc(C#N)cc1)=N[C@@H](CC(=O)NC[C@H](C)O)c1nnc(C)n1-2 [Compound 107] | 107 | 187 | 61 | AUC(0-inf) [2]: 2920 ng·h/mL; AUC(0-t) [2]: 2920 ng·h/mL; MRT inf [2]: 20.2 min; clearance [2]: 29.3 mL/min/kg; half-life [2]: 24.7 min; Vd [2]: 0.583 L/kg; AUC(0-inf) [3, 4]: 532 ng·h/mL; AUC(0-t) [3, 4]: 512 ng·h/mL; Cmax [3, 5]: 319 ng/mL; half-life [3, 4]: 97.2 min; Tmax [3, 6]: 30 min; F [3]: 9.10%
Cc1sc2c(c1C)C(c1ccc(C#N)cc1)=N[C@@H](CC(=O)NC[C@@H](C)O)c1nnc(C)n1-2 [Compound 108] | 258 | 133 | 52 | 
Cc1sc2c(c1C)C(c1ccc(C#N)cc1)=N[C@@H](CC(=O)NCC(F)F)c1nnc(C)n1-2 [Compound 109] | 70 | 142 | 37 | AUC(0-inf) [2]: 3510 ng·h/mL; AUC(0-t) [2]: 3500 ng·h/mL; MRT inf [2]: 49.7 min; clearance [2]: 23.7 mL/min/kg; half-life [2]: 66.6 min; Vd [2]: 1.18 L/kg; AUC(0-inf) [3, 4]: 3780 ng·h/mL; AUC(0-t) [3, 4]: 3630 ng·h/mL; Cmax [3, 5]: 1210 ng/mL; half-life [3, 4]: 101 min; Tmax [3, 6]: 40 min; F [3]: 53.8%
Cc1sc2c(c1C)C(c1ccc(C#N)cc1)=N[C@@H](CC(=O)N1CCOCC1)c1nnc(C)n1-2 [Compound 110] | 116 | 197 | 89 | 
Cc1sc2c(c1C)C(c1ccc(C#N)cc1)=N[C@@H](CC(=O)NCC(F)(F)F)c1nnc(C)n1-2 [Compound 111] | 125 |  | 117 | 
COC(=O)C[C@@H]1N=C(c2ccc(Cl)cc2)c2c(sc(CC#N)c2C)-n2c(C)nnc21 [Compound 200] | 52 | 132 | 48 | AUC(0-inf) [2]: 4050 ng·h/mL; AUC(0-t) [2]: 4000 ng·h/mL; MRT inf [2]: 76.8 min; clearance [2]: 20.8 mL/min/kg; half-life [2]: 82.8 min; Vd [2]: 1.57 L/kg; AUC(0-inf) [3, 4]: 6040 ng·h/mL; AUC(0-t) [3, 4]: 5520 ng·h/mL; Cmax [3, 5]: 1500 ng/mL; half-life [3, 4]: 118 min; Tmax [3, 6]: 30 min; F [3]: 72.4%
Cc1c(CC#N)sc2c1C(c1ccc(Cl)cc1)=N[C@@H](CC(=O)Nc1ccc(O)cc1)c1nnc(C)n1-2 [Compound 201] | 1900 |  | 175 | 
CCNC(=O)C[C@@H]1N=C(c2ccc(Cl)cc2)c2c(sc(CC#N)c2C)-n2c(C)nnc21 [Compound 202] | 1130 |  | 310 | 
Cc1c(CC#N)sc2c1C(c1ccc(Cl)cc1)=N[C@@H](CC(=O)NCCCN1CCN(C)CC1)c1nnc(C)n1-2 [Compound 203] | 6790 |  | 134 | 
Cc1c(CC#N)sc2c1C(c1ccc(Cl)cc1)=N[C@@H](CC(=O)NCCN1CCOCC1)c1nnc(C)n1-2 [Compound 204] | 3460 |  | 300 | 
Cc1c(CC#N)sc2c1C(c1ccc(Cl)cc1)=N[C@@H](CC(N)=O)c1nnc(C)n1-2 [Compound 205] | 903 | 612 | 206 | 
Cc1c(CC#N)sc2c1C(c1ccc(Cl)cc1)=N[C@@H](CC(=O)NCCO)c1nnc(C)n1-2 [Compound 206] | 9630 | 642 | 197 | 
Cc1c(CC#N)sc2c1C(c1ccc(Cl)cc1)=N[C@@H](CC(=O)NC[C@H](C)O)c1nnc(C)n1-2 [Compound 207] | 4250 |  | 623 | 
Cc1c(CC#N)sc2c1C(c1ccc(Cl)cc1)=N[C@@H](CC(=O)NC[C@@H](C)O)c1nnc(C)n1-2 [Compound 208] | 6100 | 1200 | 415 | 
Cc1c(CC#N)sc2c1C(c1ccc(Cl)cc1)=N[C@@H](CC(=O)NCC(F)F)c1nnc(C)n1-2 [Compound 209] | 912 |  | 386 | 
Cc1c(CC#N)sc2c1C(c1ccc(Cl)cc1)=N[C@@H](CC(=O)N1CCOCC1)c1nnc(C)n1-2 [Compound 210] | 118 | 1420 | 466 | 
COC(=O)C[C@@H]1N=C(c2ccc(Cl)cc2)c2c(sc(CNS(=O)(=O)c3ccccc3)c2C)-n2c(C)nnc21 [Compound 300] | 61 | 60 | 16 | 
Cc1sc2c(c1C)C(c1ccc(Cl)cc1)=N[C@@H](CC(=O)OC(C)(C)C)c1nnc(C)n1-2 [JQ1, reference compound] |  |  |  | IC50 [1]: 21 nM; AUCINF [2]: 2130 ng·h/mL; AUClast [2]: 2130 ng·h/mL; CL [2]: 39.2 mL/min/kg; MRTINF [2]: 51.7 min; AUCINF ([3]; oral 10 mg/kg, whole blood): 2090 ng·h/mL; AUClast ([3]; oral 10 mg/kg, whole blood): 2040 ng·h/mL; Cmax ([3]; oral 10 mg/kg, whole blood): 1180 ng/mL; Tmax ([3]; oral 10 mg/kg, whole blood): 15 min
